Minimal effective concentration data for 24 compounds are collected here from patent publication US10570129B2 (Zoetis Services LLC, priority 2015, dated 2020).

Experiment [1] relates to D. immitis microfilariae. Description: Dirofilaria immitis, microfilariae (DiMF) in vitro motility assay. It is filed as cell-based. The note with it: Dirofilaria immitis, 72 h, read-out: DiMF minimally effective dose (MEC).
The test system of experiment [2] is Haemonchus contortus L3. Description: microbe, parasite or virus in culture. The experiment is classed as cell-based. The note with it: Haemonchus contortus, 96 h, read-out: HcL3 Minimal Effective Concentration (MEC).

`N#Cc1cccc2c1c1c(n2C(=O)NCc2ccnc(Cl)c2)CCN(C/C=C/c2ccc(Cl)cc2Cl)C1` [Example 4, (E)-N-((2-chloropyridin-4-yl)methyl)-9-cyano-2-(3-(2,4-dichlorophenyl)allyl)-1,2,3,4-tetrahydro-5H-pyrido[4,3-b]indole-5-carboxamide]: the minimal effective concentration in experiment [1] was 10 µM; in experiment [2], over 100 µM.

With `N#Cc1ccc2c3c(n(C(=O)NCc4ccnc(Cl)c4)c2c1)CCN(C/C=C/c1ccc(Br)cc1F)C3` [Example 5, (E)-2-(3-(4-bromo-2-fluorophenyl)allyl)-N-((2-chloropyridin-4-yl)methyl)-7-cyano-1,2,3,4-tetrahydro-5H-pyrido[4,3-b]indole-5-carboxamide], the minimal effective concentration in experiment [1] is 5.7 µM; in experiment [2] it was 1 µM.

For `N#Cc1ccc2c3c(n(C(=O)NCc4ccnc(Cl)c4)c2c1)CCN(C/C=C/c1ccc(Br)c(F)c1)C3` [Example 8, (E)-2-(3-(4-bromo-3-fluorophenyl)allyl)-N-((2-chloropyridin-4-yl)methyl)-7-cyano-1,2,3,4-tetrahydro-5H-pyrido[4,3-b]indole-5-carboxamide], the minimal effective concentration in experiment [1] was determined as 18.2 µM; in experiment [2], 0.5 µM.

Turning to `N#Cc1ccc2c3c(n(C(=O)NCc4ccnc(Cl)c4)c2c1)CCN(C/C=C/c1cc(F)ccc1Br)C3` [Example 10, (E)-2-(3-(2-bromo-5-fluorophenyl)allyl)-N-((2-chloropyridin-4-yl)methyl)-7-cyano-1,2,3,4-tetrahydro-5H-pyrido[4,3-b]indole-5-carboxamide], the minimal effective concentration in experiment [1] was over 100 µM; in experiment [2], 1 µM.

For `N#Cc1ccc2c3c(n(C(=O)NCc4ccnc(Cl)c4)c2c1)CCN(C/C=C/c1cc(Br)ccc1F)C3` [Example 11, (E)-2-(3-(5-bromo-2-fluorophenyl)allyl)-N-((2-chloropyridin-4-yl)methyl)-7-cyano-1,2,3,4-tetrahydro-5H-pyrido[4,3-b]indole-5-carboxamide], the minimal effective concentration in experiment [1] was over 100 µM; in experiment [2], 1.8 µM.

Take `N#Cc1ccc2c3c(n(C(=O)NCc4ccnc(Cl)c4)c2c1)CCN(C/C=C/c1ccc(F)c(Br)c1)C3` [Example 12, (E)-2-(3-(3-bromo-4-fluorophenyl)allyl)-N-((2-chloropyridin-4-yl)methyl)-7-cyano-1,2,3,4-tetrahydro-5H-pyrido[4,3-b]indole-5-carboxamide]: the values for the minimal effective concentration in experiment [1] and in experiment [2] were 18.2 µM and 1.8 µM, respectively.

As for `N#Cc1ccc2c3c(n(C(=O)NCc4ccnc(Cl)c4)c2c1)CCN(C/C=C/c1ccc(Br)c(F)c1F)C3` [Example 14, (E)-2-(3-(4-bromo-2,3-difluorophenyl)allyl)-N-((2-chloropyridin-4-yl)methyl)-7-cyano-1,2,3,4-tetrahydro-5H-pyrido[4,3-b]indole-5-carboxamide], the minimal effective concentration in experiment [1] was over 100 µM; in experiment [2], 0.5 µM.

In the case of `N#Cc1ccc2c3c(n(C(=O)NCc4ccnc(Cl)c4)c2c1)CCN(C/C=C/c1ccc(Cl)c(F)c1F)C3` [Example 15, (E)-2-(3-(4-chloro-2,3-difluorophenyl)allyl)-N-((2-chloropyridin-4-yl)methyl)-7-cyano-1,2,3,4-tetrahydro-5H-pyrido[4,3-b]indole-5-carboxamide], the results for the minimal effective concentration in experiment [1] and in experiment [2] were over 100 µM and 1 µM, respectively.

For the compound `N#Cc1ccc2c3c(n(C(=O)NCc4ccnc(Cl)c4)c2c1)CCN(C/C=C/c1c(F)c(F)c(F)c(F)c1F)C3` [Example 16, (E)-N-((2-chloropyridin-4-yl)methyl)-7-cyano-2-(3-(perfluorophenyl)allyl)-1,2,3,4-tetrahydro-5H-pyrido[4,3-b]indole-5-carboxamide], the minimal effective concentration in experiment [1] and in experiment [2] was over 100 µM in each case.

For `N#Cc1ccc2c3c(n(C(=O)NCc4ccnc(Cl)c4)c2c1)CCN(C/C=C/c1c(F)c(F)c(Cl)c(F)c1F)C3` [Example 17, (E)-2-(3-(4-chloro-2,3,5,6-tetrafluorophenyl)allyl)-N-((2-chloropyridin-4-yl)methyl)-7-cyano-1,2,3,4-tetrahydro-5H-pyrido[4,3-b]indole-5-carboxamide], the values for the minimal effective concentration in experiment [1] and in experiment [2] were over 100 µM and 1 µM, respectively.

With `N#Cc1ccc2c3c(n(C(=O)NCc4ccnc(Cl)c4)c2c1)CCN(C/C=C/c1ccc(F)cc1Cl)C3` [Example 24, (E)-2-(3-(2-chloro-4-fluorophenyl)allyl)-N-((2-chloropyridin-4-yl)methyl)-7-cyano-1,2,3,4-tetrahydro-5H-pyrido[4,3-b]indole-5-carboxamide], the figures for the minimal effective concentration in experiment [1] and in experiment [2] were 7.6 µM and 5.7 µM, respectively.

As for `N#Cc1cccc2c1c1c(n2C(=O)NCc2ccnc(Cl)c2)CCN(C/C=C/c2ccc(F)cc2Cl)C1` [Example 25, (E)-2-(3-(2-chloro-4-fluorophenyl)allyl)-N-((2-chloropyridin-4-yl)methyl)-9-cyano-1,2,3,4-tetrahydro-5H-pyrido[4,3-b]indole-5-carboxamide], the results for the minimal effective concentration in experiment [1] and in experiment [2] were 33 µM and over 100 µM, respectively.

Take `N#Cc1ccc2c3c(n(C(=O)NCc4ccnc(Cl)c4)c2c1)CCN(C/C=C/c1ccc(F)cc1F)C3` [Example 26, (E)-N-((2-chloropyridin-4-yl)methyl)-7-cyano-2-(3-(2,4-difluorophenyl)allyl)-1,2,3,4-tetrahydro-5H-pyrido[4,3-b]indole-5-carboxamide]: the figures for the minimal effective concentration in experiment [1] and in experiment [2] were 5.7 µM and 2.4 µM, respectively.

As for `N#Cc1ccc2c3c(n(C(=O)NCc4ccnc(Cl)c4)c2c1)CCN(C/C=C/c1ccc(F)c(Cl)c1)C3` [Example 27, (E)-2-(3-(3-chloro-4-fluorophenyl)allyl)-N-((2-chloropyridin-4-yl)methyl)-7-cyano-1,2,3,4-tetrahydro-5H-pyrido[4,3-b]indole-5-carboxamide], the minimal effective concentration in experiment [1] and in experiment [2] was 1.8 µM each time.

Turning to `N#Cc1ccc2c3c(n(C(=O)NCc4ccnc(Cl)c4)c2c1)CCN(C/C=C/c1ccc(F)c(F)c1)C3` [Example 28, (E)-N-((2-chloropyridin-4-yl)methyl)-7-cyano-2-(3-(3,4-difluorophenyl)allyl)-1,2,3,4-tetrahydro-5H-pyrido[4,3-b]indole-5-carboxamide], the minimal effective concentration in experiment [1] turned out to be 4.4 µM; in experiment [2] it was 1.8 µM.

On to `N#Cc1ccc2c3c(n(C(=O)NCc4ccnc(Cl)c4)c2c1)CCN(C/C=C/c1cccc(Cl)c1F)C3` [Example 31, (E)-2-(3-(3-chloro-2-fluorophenyl)allyl)-N-((2-chloropyridin-4-yl)methyl)-7-cyano-1,2,3,4-tetrahydro-5H-pyrido[4,3-b]indole-5-carboxamide], for which the results for the minimal effective concentration in experiment [1] and in experiment [2] were over 100 µM and 1 µM, respectively.

Take `N#Cc1ccc(/C=C/CN2CCc3c(c4ccc(C#N)cc4n3C(=O)NCc3ccnc(Cl)c3)C2)cc1` [Example 33, (E)-N-((2-chloropyridin-4-yl)methyl)-7-cyano-2-(3-(4-cyanophenyl)allyl)-1,2,3,4-tetrahydro-5H-pyrido[4,3-b]indole-5-carboxamide]: the minimal effective concentration was over 100 µM in experiment [1] and 3.3 µM in experiment [2].

In the case of `N#Cc1ccc2c3c(n(C(=O)NCc4ccnc(Cl)c4)c2c1)CCN(C/C=C/c1ccc(Cl)cc1)C3` [Example 34, (E)-2-(3-(4-chlorophenyl)allyl)-N-((2-chloropyridin-4-yl)methyl)-7-cyano-1,2,3,4-tetrahydro-5H-pyrido[4,3-b]indole-5-carboxamide], the minimal effective concentration in experiment [1] and in experiment [2] was 3.3 µM in each case.

For `N#Cc1ccc2c3c(n(C(=O)NCc4ccnc(Cl)c4)c2c1)CCN(C/C=C/c1ccncc1)C3` [Example 37, (E)-N-((2-chloropyridin-4-yl)methyl)-7-cyano-2-(3-(pyridin-4-yl)allyl)-1,2,3,4-tetrahydro-5H-pyrido[4,3-b]indole-5-carboxamide], the minimal effective concentration was 33 µM in experiment [1] and over 100 µM in experiment [2].

In the case of `N#Cc1ccc2c3c(n(C(=O)NCc4ccnc(F)c4)c2c1)CCN(C/C=C/c1cc(F)c(Cl)c(F)c1)C3` [Example 50, (E)-2-(3-(4-chloro-3,5-difluorophenyl)allyl)-7-cyano-N-((2-fluoropyridin-4-yl)methyl)-1,2,3,4-tetrahydro-5H-pyrido[4,3-b]indole-5-carboxamide], the minimal effective concentration in experiment [1] turned out to be 10 µM; in experiment [2] it was 1.8 µM.

`COc1cc(CNC(=O)n2c3c(c4cc(C#N)ccc42)CN(C/C=C/c2cc(F)c(F)c(F)c2)CC3)ccn1` [Example 63, (E)-8-cyano-N-((2-methoxypyridin-4-yl)methyl)-2-(3-(3,4,5-trifluorophenyl)allyl)-1,2,3,4-tetrahydro-5H-pyrido[4,3-b]indole-5-carboxamide]: the minimal effective concentration in experiment [1] is 0.3 µM.

With `COc1cc(CNC(=O)n2c3c(c4cc(C#N)ccc42)CN(C/C=C/c2ccc(Cl)cc2Cl)CC3)ccn1` [Example 65, (E)-8-cyano-2-(3-(2,4-dichlorophenyl)allyl)-N-((2-methoxypyridin-4-yl)methyl)-1,2,3,4-tetrahydro-5H-pyrido[4,3-b]indole-5-carboxamide], in experiment [1], the minimal effective concentration was over 100 µM.

As to `COc1cc(CNC(=O)n2c3c(c4cc(C#N)ccc42)CN(C/C=C/c2ccc(Br)cc2F)CC3)ccn1` [Example 66, (E)-2-(3-(4-bromo-2-fluorophenyl)allyl)-8-cyano-N-((2-methoxypyridin-4-yl)methyl)-1,2,3,4-tetrahydro-5H-pyrido[4,3-b]indole-5-carboxamide], the minimal effective concentration in experiment [1] was over 100 µM.

Take `COc1cc(CNC(=O)n2c3c(c4cc(C#N)ccc42)CN(C/C=C/c2ccc(F)cc2F)CC3)ccn1` [Example 67, (E)-8-cyano-2-(3-(2,4-difluorophenyl)allyl)-N-((2-methoxypyridin-4-yl)methyl)-1,2,3,4-tetrahydro-5H-pyrido[4,3-b]indole-5-carboxamide]: the minimal effective concentration in experiment [1] was 0.01 µM.
